# From PubChem BioAssay (NCI)
# Where “and” joins values, the source holds several entries; their conditions need not be identical. Equal entries are not always repeated.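 Method: 48-hour compound exposure of cells in 96-well plates, five concentrations, linear interpolation of endpoints. GI50 is the concentration that inhibits growth by half. TGI: concentration producing complete growth inhibition.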
# Key:
# Test in all cases: inhibition of tumour cell growth, NCI panel, 48 h
# [1] = system: A498 renal
# [2] = system: CCRF-CEM leukemia
# [3] = system: COLO 205 colon
# [4] = system: EKVX NSCLC
# [5] = system: MCF7 breast
# [6] = system: MDA-MB-231 breast
# [7] = system: RPMI-8226 leukemia
# [8] = system: SF-268 CNS
# [9] = system: SNB-75 CNS
# [10] = system: UACC-257 melanoma
Structure (SMILES),TGI [1],TGI [2],TGI [3],TGI [4],TGI [5],TGI [6],TGI [7],TGI [8],TGI [9],TGI [10],GI50 [1],GI50 [2],GI50 [3],GI50 [4],GI50 [5],GI50 [6],GI50 [7],GI50 [8],GI50 [9],GI50 [10]
O=C(O)c1cccc([As]=[As]c2cccc(C(=O)O)c2)c1 (stereo not drawn),75.7 µM,79 µM,> 100 µM,> 100 µM,> 100 µM,39.9 µM,59.5 µM,72.7 µM,> 100 µM,> 100 µM,–,–,–,–,–,–,–,–,–,–
CCc1nc(N)nc(N)c1C#CC(C)c1ccc(-c2ccncc2)cc1Cl (stereo not drawn),1.64 µM and 5.81 µM,5.48 µM and 14.5 µM,2.58 µM and 11.7 µM,2.5 µM and 12.6 µM,4.31 µM and 12.1 µM,7.11 µM and 19.8 µM,1.7 µM and 10.8 µM,3.2 µM and 16.8 µM,2.76 µM and 9.74 µM,2.34 µM and 12.1 µM,0.109 µM and 0.223 µM,0.0143 µM and 0.0367 µM,0.0387 µM and 0.0515 µM,0.0259 µM and 0.0772 µM,0.0144 µM and 0.0328 µM,0.555 µM and 0.511 µM,0.145 µM and 0.0946 µM,0.0287 µM and 0.0682 µM,0.505 µM and 1.67 µM,0.0286 µM and 0.0348 µM
COc1ccc(C2=C(c3ccc(OC)cc3)C(=O)OC2)cc1,3.66 µM,18.5 µM,> 100 µM,> 100 µM,16.2 µM,> 39.3 µM,11.4 µM,27.6 µM,> 100 µM,> 100 µM,0.528 µM,3.29 µM,1.38 µM,16.1 µM,0.492 µM,5.15 µM,1.71 µM,1.52 µM,3.16 µM,40.1 µM
O=C(c1ccc(Cl)cc1Cl)N1CCN(C(=O)c2ccc(Cl)cc2Cl)C1=S,36.5 µM,38.5 µM,37.7 µM,48.4 µM,36.7 µM,38.7 µM,30.7 µM,56.1 µM,61.7 µM,63.4 µM,16.1 µM,19.5 µM,21 µM,20.5 µM,18.3 µM,19.1 µM,–,24.5 µM,22.3 µM,28.2 µM
O=CNC(Cc1cnc[nH]1)C(=O)O (stereo not drawn),> 100 µM,> 100 µM,> 100 µM,> 100 µM,> 100 µM,> 100 µM,> 100 µM,> 100 µM,> 100 µM,> 100 µM,–,–,–,–,–,–,–,–,–,–
O=C(CSSCC(=O)c1ccc(Cl)cc1)c1ccc(Cl)cc1,23 µM,> 100 µM,29.8 µM,> 100 µM,17.8 µM,24.2 µM,12.3 µM,64.7 µM,21.4 µM,34.4 µM,9.77 µM,3.39 µM,14.2 µM,9.8 µM,3.76 µM,4.93 µM,3.2 µM,4.3 µM,6.62 µM,5.18 µM
O=C1c2ccccc2C(=O)c2c1ccc1conc21,24.3 µM,71.1 µM,12.3 µM,3.87 µM,2.65 µM,1.42 µM,3.85 µM,6.8 µM,20.5 µM,4.37 µM,–,–,–,–,–,–,–,–,–,–
COc1ccc(/C=C\c2cc(OC)c(OC)c(OC)c2)cc1NC(=O)/C=C/c1ccc(OC)c(OC)c1,> 100 µM,> 100 µM,10.9 µM,> 100 µM,> 100 µM,> 100 µM,> 100 µM,> 100 µM,–,> 100 µM,0.184 µM,4.19 µM,2.05 µM,> 100 µM,3.22 µM,25.5 µM,3.95 µM,7.29 µM,–,> 100 µM
CC(=O)CC[N+](C)(C)C,91.9 µM,13.7 µM,17.5 µM,28.9 µM,64.8 µM,38.6 µM,26 µM,76.8 µM,70.3 µM,54.6 µM,–,–,–,–,–,–,–,–,–,–
COC(=O)CNC(=O)C(=O)c1c(O)c(O)c(C(C)C)c2cc(C)c(-c3c(C)cc4c(C(C)C)c(O)c(O)c(C(=O)C(=O)NCC(=O)OC)c4c3O)c(O)c12,12.2 µM,> 50 µM,3.16 µM,4.99 µM,6.11 µM,9.64 µM,> 50 µM,8.75 µM,8.5 µM,20.9 µM,2.6 µM,2.14 µM,1.28 µM,1.2 µM,1.64 µM,1.99 µM,2.72 µM,1.88 µM,1.61 µM,7.89 µM
Cc1cc(NC(=O)NCCOc2ccc(N3C(N)=NC(N)=NC3(C)C)cc2Cl)ccc1S(=O)(=O)F,> 100 µM,> 67.6 µM,30.4 µM,–,50.3 µM,> 77.9 µM,> 55 µM,99.5 µM,48.3 µM,> 49.1 µM,10.2 µM,0.805 µM,1.4 µM,–,1.7 µM,6.11 µM,3.46 µM,1.64 µM,1.53 µM,4.1 µM
COc1ccc(Cn2cc3c(c2-c2ccccc2)CCc2cnoc2-3)cc1,> 95.5 µM,> 100 µM,0.394 µM,> 100 µM,> 100 µM,> 100 µM,0.501 µM,> 100 µM,> 100 µM,> 100 µM,0.209 µM,0.251 µM,0.125 µM,0.425 µM,0.0391 µM,0.37 µM,0.167 µM,0.488 µM,0.165 µM,27.4 µM
COc1ccc(C2=Nn3c(nnc3-c3ccc(F)c(Cl)c3)SC2)cc1,> 100 µM,> 100 µM,> 100 µM,> 100 µM,> 100 µM,> 100 µM,> 100 µM,> 100 µM,> 100 µM,> 100 µM,> 100 µM,57.8 µM,> 100 µM,> 100 µM,> 100 µM,29.5 µM,> 100 µM,> 100 µM,63.3 µM,> 100 µM
Nc1c(C(=O)c2cccc(-c3cccnc3)c2)cnn1-c1ccc(F)cc1,> 25 µM,> 25 µM,> 25 µM,–,> 25 µM,> 25 µM,> 25 µM,> 25 µM,> 25 µM,> 25 µM,> 25 µM,> 25 µM,> 25 µM,–,> 25 µM,> 25 µM,> 25 µM,> 20.9 µM,> 12.6 µM,> 25 µM
